Laboratory results from patent US20250262228A1, “TREATMENT OF SPASTICITY AND PAIN IN RENALLY-IMPAIRED PATIENTS” (Jazz Pharmaceuticals Research UK Limited., priority 2022, published 2025).

Experiments:
[1] = for Cmax, Geometric LS Mean Ratio (Severe RI/Normal), Estimate / AUClast, Geometric LS Mean Ratio (Severe RI/Normal), Estimate: plasma, mixed model; for Cmax, Geometric LS Mean Ratio (Severe RI/Normal), Estimate / AUClast, Geometric LS Mean Ratio (Severe RI/Normal), Estimate / increase in AUClast in severe renal impairment versus normal renal function / AUC0-tlast Fold Change from Normal / increase in AUC in the renally impaired group compared to the normal group / mean plasma concentrations over time in renally impaired participants versus normal: 4 sprays; for AUClast, Geometric LS Mean Ratio (Severe RI/Normal), Estimate: significant when ratio >=2.0 plus 90% CI outside 0.5-2.0; for elimination in patients with renal impairment: renally impaired vs normal, after oromucosal spray; for increase in AUClast in severe renal impairment versus normal renal function / increase in AUC in the renally impaired group compared to the normal group: severe renal impairment vs normal, oromucosal spray; for AUC0-tlast Fold Change from Normal / mean plasma concentrations over time in renally impaired participants versus normal: severe renal impairment; for mean plasma concentrations over time in renally impaired participants versus normal: FIGS. 1-4
From the text: Rationale: To date, no studies of administering the disclosed oromucosal spray in patients with varying degrees of renal impairment have been conducted. The present trial investigated the effects of the oromucosal spray in subjects with severe renal impairment. The principal aim of this trial was to assess the pharmacokinetic (PK) parameters following oromucosal administration in patients with severe renal impairment and individually matched healthy participants (i.e., otherwise identical patients with normal renal function).
Primary Objectives: Evaluated and compared the PK parameters of the oromucosal spray in participants with severe renal impairment or End-Stage Renal Disease (ESRD) to the PK profile in matched participants with normal renal function.
Primary Endpoints: The PK parameters, derived from the plasma concentration-time (Cmax) and area under the concentration-time curve calculated to the last concentration at time t (AUC0-t), or 48 hours (AUC0-48), for THC, CBD, and metabolites of THC and CBD (e.g., 11-OH-THC and 7-COOH-CBD).
The 4 sprays administered a total of 10.8 mg THC and 10 mg CBD. The duration of the trial was approximately 45 days, which included a screening period (up to 4 weeks), a treatment period (48 hours) and a safety follow-up period (2 weeks). Screening was performed within 28 to 2 days before dosing, and the assessments included measurement of serum creatinine to assess the eGFR as determined by the modification of diet in renal disease formula (MDRD) to verify initial participant eligibility for trial participation. Participants entered the screening period (Day −28 to −1). From Day −1, screened participants who continued to meet eligibility criteria were admitted to the clinical research facility and placed under observation continually from dosing until 48 hours postdose. […] On Day 1, participants received 4 sprays of the oromucosal spray.
Formulation Mode of Administration, Dose, and Regimen: The oromucosal spray was formulated as a mixture of THC and CBD extracts derived from Cannabis sativa L. The formulation contains THC and CBD as the most abundant cannabinoid constituents and also contains minor constituents including related cannabinoids and non-cannabinoid plant components, such as terpenes, sterols, and triglycerides. The spray contains 27 mg/mL of THC and 25 mg/mL of CBD dissolved in the excipients (e.g., ethanol and propylene glycol). Each spray delivers 100 μL containing 2.7 mg of THC and 2.5 mg of CBD.
Procedures: PK samplings were taken as close as to the nominal time point. Participants fasted overnight for at least 10 hours prior to the administration and for at least 4 hours thereafter. Standardized meals and beverages were provided at approximately 4 hours and 9 hours after dosing. With the exception of the water administered at the time of dosing, water was not permitted from 1 hour before until 1 hour after dosing. […] Cannabis or use of anticonvulsants, antidepressants, antipsychotic and anxiolytic medications were not allowed throughout the trial. Alcohol, nicotine products, and consuming food or beverages containing methylxanthines (caffeinated food or beverages) were prohibited for 24 hours prior to each visit and throughout the inpatient period.

[2] = renally impaired patients administered highly purified CBD; cited from earlier work

| SMILES | Cmax, Geometric LS Mean Ratio (Severe RI/Normal), Estimate [1] | AUClast, Geometric LS Mean Ratio (Severe RI/Normal), Estimate [1] | elimination in patients with renal impairment [1] | increase in AUClast in severe renal impairment versus normal renal function [1] | AUC0-tlast Fold Change from Normal [1] [fold] | increase in AUC in the renally impaired group compared to the normal group [1] [fold] | mean plasma concentrations over time in renally impaired participants versus normal [1] | clinically relevant elevations of CBD, 7-OH-CBD and 7-COOH-CBD (mean AUClast ratios greater than 2 between the renally impaired and the control) [2] |
| --- | --- | --- | --- | --- | --- | --- | --- | --- |
| C=C(C)[C@@H]1CCC(C(=O)O)=C[C@H]1c1c(O)cc(CCCCC)cc1O [7-COOH-CBD] | 1.4 | 1.92 | relatively unchanged | < 2 fold | 1.92 | – | – | – |
| C=C(C)[C@@H]1CCC(CO)=C[C@H]1c1c(O)cc(CCCCC)cc1O [7-OH-CBD] | 1.89 | 4.59 | clinically significant prolonged elimination | approximately 3 fold | 4.59 | 4.59 | – | – |
| CCCCCc1cc(O)c2c(c1)OC(C)(C)[C@@H]1CCC(C(=O)O)=C[C@@H]21 [11-COOH-THC] | 1.15 | 1.26 | relatively unchanged | – | 1.26 | – | – | – |
| CCCCCc1cc(O)c2c(c1)OC(C)(C)[C@@H]1CCC(CO)=C[C@@H]21 [11-OH-THC] | 2.13 | 3.18 | clinically significant prolonged elimination | – | 3.18 | 3.18 | Much higher | – |
| C=C(C)[C@@H]1CCC(C)=C[C@H]1c1c(O)cc(CCCCC)cc1O [CBD, Cannabidiol, reference compound] | 1.11 | 1.95 | relatively unchanged | – | 1.95 | – | elevated | – |
| CCCCCc1cc(O)c2c(c1)OC(C)(C)[C@@H]1CCC(C)=C[C@@H]21 [THC, Δ-9-tetrahydrocannabinol, reference compound] | 0.8 | 1.34 | relatively unchanged | – | 1.34 | – | elevated | – |
| C=C(C)[C@@H]1CCC(C)=C[C@H]1c1c(O)cc(CCCCC)cc1O [highly purified form of CBD] | – | – | – | – | – | – | – | not observed |
